Consider 8 molecules from article PMC11982470, “The 2-methylcitrate cycle and the glyoxylate shunt in Pseudomonas aeruginosa are linked through enzymatic redundancy” (The Journal of Biological Chemistry, 2025).

For data set [1], the target named is T1, AceAPa (ICLPa) (Pseudomonas aeruginosa, UniProt Q9I0K4).
T1 construct: gene PA2634; full-length, N-terminal His6 tag TEV-cleaved (pET-19m), expressed in E. coli
T1 sequence (Q9I0K4 1-531): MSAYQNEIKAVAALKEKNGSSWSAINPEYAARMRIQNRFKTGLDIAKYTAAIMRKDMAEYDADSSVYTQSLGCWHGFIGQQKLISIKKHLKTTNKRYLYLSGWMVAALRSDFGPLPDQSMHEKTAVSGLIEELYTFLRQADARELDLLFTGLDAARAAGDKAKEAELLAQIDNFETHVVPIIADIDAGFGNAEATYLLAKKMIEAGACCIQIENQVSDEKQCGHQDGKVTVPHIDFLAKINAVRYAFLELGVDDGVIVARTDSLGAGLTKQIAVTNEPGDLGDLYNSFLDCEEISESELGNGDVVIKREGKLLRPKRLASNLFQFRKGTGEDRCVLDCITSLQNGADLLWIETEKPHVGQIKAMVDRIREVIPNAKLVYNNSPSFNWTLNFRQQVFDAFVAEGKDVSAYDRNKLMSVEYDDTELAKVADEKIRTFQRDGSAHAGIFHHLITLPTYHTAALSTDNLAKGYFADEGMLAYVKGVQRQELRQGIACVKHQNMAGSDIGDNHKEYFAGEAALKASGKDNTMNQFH
The experiment in a line: phenylhydrazine-based isocitrate lyase assay, […] nm. The settings on record: 4 mM DL-isocitric acid, 25 mM imidazole pH 7.0, 10 mM EDTA, 5 mM MgCl2. Type of data set: biochemical.

Data set [2] addresses T1, AceAPa (ICLPa). Briefly: LDH-coupled assay, NADH oxidation at […] nm. The data set is classed as biochemical. The settings on record: 50 mM Hepes pH 7.5, 2.5 mM MgCl2, 5 mM DTT, 37 °C; racemic threo substrate.
For a further data set, the target named is T2, PrpBPa (Pseudomonas aeruginosa, UniProt Q9I5E2).
T2 construct: gene prpB; full-length, N-terminal His6 tag TEV-cleaved (pET-19m), expressed in E. coli; homotetramer (dimer of dimers)
T2 sequence (Q9I5E2 1-298): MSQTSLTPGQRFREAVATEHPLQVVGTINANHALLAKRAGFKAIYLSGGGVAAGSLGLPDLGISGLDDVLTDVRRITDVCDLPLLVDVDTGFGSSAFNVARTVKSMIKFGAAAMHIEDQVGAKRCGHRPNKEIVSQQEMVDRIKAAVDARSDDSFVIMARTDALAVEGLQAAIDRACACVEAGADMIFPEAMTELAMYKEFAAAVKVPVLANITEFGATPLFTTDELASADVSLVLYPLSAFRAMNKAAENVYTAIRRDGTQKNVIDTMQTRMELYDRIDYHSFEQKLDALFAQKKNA
Briefly: LDH-coupled assay, inhibitor screen, relative activity. The data set is classed as biochemical. The following applies: 1 mM compound, 5 min preincubation; pH 7.5, Mg2+, DTT, 37 °C.

Substrate in the data set “purified protein”: CC(O)(C(=O)O)C(CC(=O)O)C(=O)O
The experiment in a line: purified protein. Type of data set: biochemical, Pseudomonas aeruginosa. The following applies: 50 mM Hepes pH 7.5, 2.5 mM MgCl2, 5 mM DTT, 37 °C, DTT-pretreated enzyme, racemic threo substrate.

Data set [3] deals with the molecule itself. Briefly: crystal structure; apo-PrpBPa (1.8 Å) and PrpBPa with Mg2+/pyruvate (1.76 Å, crystal soak); tetramer in the asymmetric unit; crystals from Tris-HCl pH 8.5, PEG 4000, LiSO4, 5 mM DTT, 19 °C.

For `O=C(O)CC(C(=O)O)C(O)C(=O)O` (racemic) [DL isocitric acid], the “phenylhydrazine-based isocitrate lyase assay, 324 nm” value on AceAPa (ICLPa) [1] is “could catalyze the cleavage of isocitrate into glyoxylate and succinate”.

`CC(O)(C(=O)O)C(CC(=O)O)C(=O)O` (racemic) [threo-2-methylisocitrate]: at AceAPa (ICLPa) [2], the “LDH-coupled assay, NADH oxidation at 340 nm” value was “purified AceAPa demonstrated robust 2-MICL activity in vitro”.

Turning to `O=C(O)CC[N+](=O)[O-]` [3-nitropropionic acid], the “relative activity at 1 mM” value on PrpBPa was 3-nitropropionic acid was also a potent inhibitor of PrpBPa.

Consider `O=C[C@H](O)COP(=O)(O)O` [D-glyceraldehyde 3-phosphate], for which the “relative activity at 1 mM” value at PrpBPa was “α-ketoglutarate, cis-aconitic acid, and D-glyceraldehyde 3-phosphate were all potent inhibitors of PrpBPa”.

As for `O=C(O)/C=C\C(=O)O` [Maleic acid], the “relative activity at 1 mM” value on PrpBPa is “Maleic acid was a nonphysiological inhibitor”.

In the case of `O=C(O)/C=C(/CC(=O)O)C(=O)O` [cis-aconitic acid], the “relative activity at 1 mM” value at PrpBPa is “α-ketoglutarate, cis-aconitic acid, and D-glyceraldehyde 3-phosphate were all potent inhibitors of PrpBPa”.

As for `O=C(O)CCC(=O)C(=O)O` [α-ketoglutarate], the “relative activity at 1 mM” value on PrpBPa was “α-ketoglutarate, cis-aconitic acid, and D-glyceraldehyde 3-phosphate were all potent inhibitors of PrpBPa”.

B1: 2-methylisocitrate lyase PrpB from Pseudomonas aeruginosa (PrpBPa) (enzyme, Pseudomonas aeruginosa PAO1)
chain: MSQTSLTPGQRFREAVATEHPLQVVGTINANHALLAKRAGFKAIYLSGGGVAAGSLGLPDLGISGLDDVLTDVRRITDVCDLPLLVDVDTGFGSSAFNVARTVKSMIKFGAAAMHIEDQVGAKRCGHRPNKEIVSQQEMVDRIKAAVDARSDDSFVIMARTDALAVEGLQAAIDRACACVEAGADMIFPEAMTELAMYKEFAAAVKVPVLANITEFGATPLFTTDELASADVSLVLYPLSAFRAMNKAAENVYTAIRRDGTQKNVIDTMQTRMELYDRIDYHSFEQKLDALFAQKKNA
notes: 2-methylisocitrate lyase PrpB, Pseudomonas aeruginosa PAO1, locus PA0796, PCR-amplified from PAO1 genomic DNA and cloned into pET-19m; 32.1 kDa; In the crystal structures the termini and the active site loop (residues 121-131) are not resolved; also called 2-MICL; PA0796; source: E. coli, purified (Ni-NTA; His6 tag removed with TEV protease); not shown: His6, N-terminal, cleaved
As a reminder, the Km is the substrate concentration at which the rate is half of its maximum. Usually kcat stands for the number of substrate molecules converted per active site and unit of time at saturation. In general, stoichiometry N refers to the number of molecules, sites or subunits per partner or assembly. Take B1: in “purified protein”, the Km is 632 ± 158 µM and the kcat is 48.2 ± 4.2 s⁻¹. In data set [3], the “stoichiometry N” value came out at 4.
